Legend:
BVSM = assay: Viability of cultured cells, 72 hr; format: cell-based, bovine; conditions: 5% BCS, 0 to 1 mM
Method: FIG. 19. Effect of GSAO on proliferation of non-endothelial cells. 15,000 BxPC-3 (part A), HT1080 (part B), 3T3 (part C) or BVSM (part D) cells per well were seeded into gelatinised 24-well culture plates and allowed to attach for 24 hr. The media was then replaced with DMEM containing 0 to 1 mM GSAO or GSAA and either 5% BCS (part D) or 5% FCS (parts A, B and C). Cells were cultured for 72 hr and then dispersed and counted. The dotted lines indicate the cell number in control wells containing DMEM and 2% BCS (part D) or 2% FCS (parts A, B and C) which represented no to limited proliferation. The data points and errors represent the mean and range of duplicate wells.
BCE (Folkman et al. 1979), BAE, BxPC-3 (ATCC, Bethesda, Md.), HT1080 (Jiang et al., 1999), 3T3 (ATCC, Bethesda, Md.) and BVSM (Hogg et al., 1997) cells were harvested and cultured as indicated. […] Cells were cultured for 0 to 72 hr in 10% CO2 at 37° C. then dispersed in trypsin/EDTA (GibcoBRL, Granc Island, N.Y.), resuspended in Coulter balanced electrolyte solution and counted with a Z1 Coulter counter (Coulter Corp., Miami, Fla.) in all experiments there were two control wells containing DMEM with 1% GPS and either 5% BCS for BCE cells, 2% BCS for BAE and BVSM cells, or 2% FCS for BxPC-3, HT1080 and 3T3 cells. […]

HMEC-1 or HUVE cells = assay: GSAO-B labelling of endothelial cell surface proteins; format: cell-based, human; conditions: 100 μM, 30 minutes
Method: FIG. 16. Identification of endothelial cell surface proteins that contain closely spaced dithiols). A The surface of HMEC-1 or HUVE cells (2×10^6 cells in 0.4 mL) was labelled with GSAO-B (100 μM) for 30 minutes at room temperature in the absence (lanes 1 and 3) or presence of DMP (400 μM) (lane 2). The endothelial cells were lysed and the lysate from both incubations was resolved on 4-15% SDS-PAGE, transferred to PVDF membrane, and blotted with streptavidin peroxidase to detect the GSAO-B label. The results represent labelling of 3×10^4 HMEC-1 (lanes 1 and 2) of HUVE cells (lane 3). The positions of Mr markers are shown at left. B Densitometry profile of the surface labelled proteins (lanes 1 and 3). The apparent Mr's of the individual proteins are indicated.
Human umbilical vein endothelial cells (HUVEC) (Wall et al., 1978) and the human dermal microvascular endothelial cell line, HMEC-1 (Ades et al., 1992), were harvested and cultured as indicated. Endothelial cells (5×10^6) were detached from culture flasks using 5 mM EDTA in PBS at 37° C., washed 3 times with PBS, resuspended in PBS containing 100 μM of GSAO-B in the absence or presence of 400 μM DMP, and incubated for 30 minutes at room temperature. The cells were washed 3 times with 1 mL of PBS, resuspended in 0.2 mL of ice cold 50 mM Tris/HCl, pH 8 buffer containing 0.5 M NaCl, 1% Triton X-100, 10 μM leupeptin, 2 mM PMSF (Sigma Chemical Company, St, Louis, Mo.), 5 mM EDTA and 10 μM aprotinin (Bayer Australia Ltd., Sydney, NSW), and sonicated on ice. On some occasions the cell lysates were incubated with streptavidin-agarose (Sigma, Castle Hill, NSW) beads (25 μL of packed beads in a total volume of 1 mL) for 60 minutes at 4° C. with rotary mixing. Bound proteins were washed 5 times with 50 mM Tris/HCl, pH 8 buffer containing 0.15 M NaCl and 0.05% Triton X-100, resolved on SDS-PAGE, transferred to PVDF membrane, and the GSAO-B-labeled proteins detected by Western blot.

PBMC = assay: Cell number and cell viability in the PBMC HIV assay; conditions: 10 μM
Method: PBMC's (1×10^6 per mL) were incubated with GSAA or GSAO (10 μM) for 30 minutes at 37° C. and then with primary HIV isolates (HN11, HN68 or HN70 at 50 TCID50 per 10^6 cells) for 2 hours at 37° C. Cells were washed and incubated in complete medium containing GSAA or GSAO (10 μM) at 5% CO2 and 37° C. for up to 7 days. At the indicated times the conditioned medium was collected and assayed for p24 antigen and cell number and cell viability was determined.
The primary HIV isolates, HN11, HN68 and HN70, were provided by Dr. Hassan Naif, Centre for Virus Research, Westmead Millennium Institute, NSW, Australia. […] The blood was diluted 1:2 with PBS, layered onto Ficoll-Hypaque (35 mL blood onto 15 mL Ficoll-Hypaque) in 50 mL Falcon tubes and centrifuged at 400 g for 20 minutes at 20° C. The PBMC's were collected and pelleted at 1200 rpm for 10 minutes to remove platelets, resuspended at 2×10^6 cells per mL in RPMI containing 20% horse serum (Gibco BRL, Gaithersburg, Md.), 10 μg per mL phytohemagglutinin-M (PHA-M, Boehringer Mannheim Biochemica, Mannheim, Germany) and […] interleukin-2 (Sigma, St. Louis, Mo.) and incubated for 2 days at 5% CO2 and 37° C., PBMC (1×10^6 per mL) were incubated with GSAO or GSAA (10 μM) for 30 minutes at 37° C. in serum-free media. Virus was added at 50 TCID50 per 10^6 cells for 2 hours at 37° C.. […]

N[C@@H](CCC(=O)N[C@@H](CSCC(=O)Nc1ccc([As](=O)(O)O)cc1)C(=O)NCC(=O)O)C(=O)O [GSAA, 4-(N-(S-glutathionylacetyl)amino)phenylarsonic acid, reference compound]
Viability IC50 (BVSM): no significant effect

NC(CCC(=O)NC(CSCC(=O)Nc1ccc([As]=O)cc1)C(=O)NCC(=O)O)C(=O)O (stereo not shown) [GSAO, 4-(N-(S-glutathionylacetyl)amino)-phenylarsenoxide]
proteins on the endothelial cell surface that bind the compound (HMEC-1 or HUVE cells): ten distinct proteins
proliferation of PBMC's (PBMC): inhibited proliferation
viability of PBMC's (PBMC; 7 days): no effect of cell viability
